This note sets out measurements from patent US8563553B2, “Compounds and compositions as protein kinase inhibitors” (Novartis AG, priority 2009, dated 2013).

One may read the IC50 as the concentration needed to halve the response being measured.

In this experiment the target is b-Raf(V600E) (Homo sapiens (Human), UniProt P15056, V600E). The experiment in a line: Raf/Mek Amplified Luminescence Proximity Homogeneous Assay (Alpha Screen). In kind it is biochemical. The following applies: b-Raf(V600E) approximately 4 pM; biotinylated Mek, kinase dead approximately 10 nM; ATP 10 μM; pre-incubation 60 minutes; reaction 3 hours at room temperature; read-out: mut-B-RAF IC50. The procedure: Raf/Mek Amplified Luminescence Proximity Homogeneous Assay
Assay buffer: 50 mM Tris, pH 7.5, 15 mM MgCl2, 0.01% Bovine Serum Albumin (BSA), 1 mM dithiothreitol (DTT) Stop buffer: 60 mM ethylenediaminetetraacetic acid (EDTA), 0.01% Tween® 20 Bead buffer: 50 mM Tris, pH 7.5, 0.01% Tween® 20 […]
biotinylated Mek, kinase dead
Alpha Screen detection kit (available from PerkinElmer™, #6760617R)
Anti phospho-MEK1/2 (available from Cell Signaling Technology, Inc. #9121) 384 well assay plates (White Greiner® plates, #781207) […]
biotinylated Mek, Kinase dead approximately 10 nM
Pre-incubation time with compounds 60 minutes at room temperature
Reaction time 1 or 3 hours at room temperature
Raf and biotinylated Mek, kinase dead, were combined at 2× final concentrations in assay buffer (50 mM Tris, pH 7.5, 15 mM MgCl2, 0.01% BSA and 1 mM DTT) and dispensed 10 μl per well in assay plates (Greiner white 384 well assay plates #781207) containing 0.5 μl of 40× of a raf kinase inhibitor test compound diluted in 100% DMSO. The plate was incubated for 60 minutes at room temperature.
The Raf kinase activity reaction was started by the addition of 10 μL per well of 2×ATP diluted in assay buffer. […] Phosphorylated product was measured using a rabbit anti-p-MEK (Cell Signaling, #9121) antibody and the Alpha Screen IgG (ProteinA) detection Kit (PerkinElmer #6760617R), by the addition of 30 μL to the well of a mixture of the antibody (1:2000 dilution) and detection beads (1:2000 dilution of both beads) in bead buffer (50 mM Tris, pH 7.5, 0.01% Tween20). The additions were carried out under dark conditions to protect the detection beads from light. A lid was placed on top of the plate and incubated for 1 hour at room temperature, then the luminescence was read on a PerkinElmer Envision instrument. The concentration of each compound for 50% inhibition (IC50) was calculated by non-linear regression using XL Fit data analysis software.

SMILES strings stand for the structures.

Chain of b-Raf(V600E) (P15056 whole entry V600E): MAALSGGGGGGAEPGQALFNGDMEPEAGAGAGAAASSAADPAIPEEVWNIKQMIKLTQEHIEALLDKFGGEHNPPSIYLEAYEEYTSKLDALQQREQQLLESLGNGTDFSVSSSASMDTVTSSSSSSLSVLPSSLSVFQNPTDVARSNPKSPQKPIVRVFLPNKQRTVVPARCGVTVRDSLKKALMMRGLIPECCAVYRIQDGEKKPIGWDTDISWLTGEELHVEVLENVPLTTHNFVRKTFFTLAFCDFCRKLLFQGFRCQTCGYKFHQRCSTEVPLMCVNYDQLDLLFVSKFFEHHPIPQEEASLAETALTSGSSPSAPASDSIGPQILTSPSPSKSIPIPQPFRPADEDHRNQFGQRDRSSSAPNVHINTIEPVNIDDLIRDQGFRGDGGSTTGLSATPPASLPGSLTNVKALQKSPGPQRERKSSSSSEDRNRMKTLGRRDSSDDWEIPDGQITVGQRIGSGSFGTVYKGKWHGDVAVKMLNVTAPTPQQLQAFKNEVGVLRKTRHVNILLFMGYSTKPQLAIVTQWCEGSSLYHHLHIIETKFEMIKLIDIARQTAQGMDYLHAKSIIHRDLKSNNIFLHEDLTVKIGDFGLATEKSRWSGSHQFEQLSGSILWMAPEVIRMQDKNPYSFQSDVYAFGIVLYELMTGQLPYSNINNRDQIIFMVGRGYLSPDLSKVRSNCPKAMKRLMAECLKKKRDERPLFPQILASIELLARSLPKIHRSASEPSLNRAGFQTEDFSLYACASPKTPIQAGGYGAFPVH

Regarding `COC(=O)N[C@@H](C)CNc1nccc(-c2nc(C3(C)CC3)[nH]c2-c2cccc(NS(C)(=O)=O)c2Cl)n1` [Example 1AO, (S)-Methyl 1-(4-(5-(2-chloro-3-(methylsulfonamido)phenyl)-2-(1-methylcyclopropyl)-1H-imidazol-4-yl)pyrimidin-2-ylamino)propan-2-ylcarbamate], the IC50 is 1 nM. Under `CCCS(=O)(=O)Nc1cc(F)cc(-c2nc(C3CC3)[nH]c2-c2ccnc(N)n2)c1Cl` [Example 1BS, N-(3-(5-(2-Aminopyrimidin-4-yl)-2-cyclopropyl-1H-imidazol-4-yl)-2-chloro-5-fluorophenyl)propane-1-sulfonamide] stands 0.2 nM; under `COC(=O)N[C@@H](C)CNc1nccc(-c2nc(C3CC3)[nH]c2-c2cc(Cl)cc(NS(=O)(=O)c3cccc(F)c3)c2F)n1` [Example 1AX, (S)-Methyl 1-(4-(5-(5-chloro-2-fluoro-3-(3-fluorophenylsulfonamido)phenyl)-2-cyclopropyl-1H-imidazol-4-yl)pyrimidin-2-ylamino)propan-2-ylcarbamate], 0.33 nM; under `CC(C)(C)c1nc(-c2cccc(NS(C)(=O)=O)c2Cl)c(-c2ccnc(N)n2)[nH]1` [Example 1BL, N-(3-(5-(2-Aminopyrimidin-4-yl)-2-tert-butyl-1H-imidazol-4-yl)-2-chlorophenyl)methanesulfonamide], 55 nM. With `CCS(=O)(=O)Nc1cc(Cl)cc(-c2[nH]c(C3CC3)nc2-c2ccnc(NC[C@H](C)NC(=O)OC)n2)c1F` [Example 1Z, (S)-Methyl 1-(4-(5-(5-chloro-3-(ethylsulfonamido)-2-fluorophenyl)-2-cyclopropyl-1H-imidazol-4-yl)pyrimidin-2-ylamino)propan-2-ylcarbamate] the figure was 0.24 nM; with `COC(=O)N[C@@H](C)CNc1nccc(-c2[nH]c(C3CC3)nc2-c2cc(Cl)cc(NS(C)(=O)=O)c2)n1` [Example 1S, (S)-Methyl 1-(4-(4-(3-chloro-5-(methylsulfonamido)phenyl)-2-cyclopropyl-1H-imidazol-5-yl)pyrimidin-2-ylamino)propan-2-ylcarbamate], 0.48 nM; with `COC(=O)N[C@@H](C)CNc1nccc(-c2nc(C3(C)CC3)[nH]c2-c2cc(Cl)cc(NS(C)(=O)=O)c2F)n1` [Example 1AL], 1 nM. On to `Nc1nccc(-c2[nH]c(C3CC3)nc2-c2cccc(NS(=O)(=O)c3c(F)cccc3F)c2Cl)n1` [Example 2H, N-(3-(5-(2-aminopyrimidin-4-yl)-2-cyclopropyl-1H-imidazol-4-yl)-2-chlorophenyl)-2,6-difluorobenzenesulfonamide], for which the IC50 was 1 nM. Under `CS(=O)(=O)Nc1cccc(-c2nc(C3CC3)[nH]c2-c2ccnc(NCC3(C#N)CC3)n2)c1Cl` [Example 2G, N-(2-Chloro-3-(5-(2-((1-cyanocyclopropyl)methylamino)pyrimidin-4-yl)-2-cyclopropyl-1H-imidazol-4-yl)phenyl)methanesulfonamide] stands 35 nM; under `COC(=O)N[C@@H](C)CNc1nccc(-c2[nH]c(C3CCC3)nc2-c2cc(Cl)cc(NS(C)(=O)=O)c2F)n1` [Example 1BT, (S)-Methyl 1-(4-(4-(5-chloro-2-fluoro-3-(methylsulfonamido)phenyl)-2-cyclobutyl-1H-imidazol-5-yl)pyrimidin-2-ylamino)propan-2-ylcarbamate], 0.23 nM. With `COC(=O)N[C@@H](C)CNc1nccc(-c2[nH]c(C(C)(C)C)nc2-c2cc(NS(=O)(=O)C(C)C)c(C)c(OC)c2)n1` [Example 1K, (S)-Methyl 1-(4-(2-tert-butyl-4-(3-methoxy-4-methyl-5-(1-methylethylsulfonamido)phenyl)-1H-imidazol-5-yl)pyrimidin-2-ylamino)propan-2-ylcarbamate] the figure was 189 nM; with `Cc1cc(NS(C)(=O)=O)c(Cl)c(-c2nc(C3(C)CC3)[nH]c2-c2ccnc(NCCC#N)n2)c1` [Example 1AZ, N-(2-Chloro-3-(5-(2-(2-cyanoethylamino)pyrimidin-4-yl)-2-(1-methylcyclopropyl)-1H-imidazol-4-yl)-5-methylphenyl)methanesulfonamide], 0.29 nM; with `CC(C#N)CNc1nccc(-c2[nH]c(C3CC3)nc2-c2cccc(NS(C)(=O)=O)c2Cl)n1` (stereo not shown) [Example 1AK, N-(2-Chloro-3-(5-(2-(2-cyanopropylamino)pyrimidin-4-yl)-2-cyclopropyl-1H-imidazol-4-yl)phenyl)methanesulfonamide], 11 nM. Regarding `CC(C)(C)c1nc(-c2cccc(NS(=O)(=O)c3c(F)cccc3F)c2Cl)c(-c2ccnc(N)n2)[nH]1` [Example 1BK, N-(3-(5-(2-Aminopyrimidin-4-yl)-2-tert-butyl-1H-imidazol-4-yl)-2-chlorophenyl)-2,6-difluorobenzenesulfonamide], the IC50 is 0.22 nM. With `COC(=O)N[C@@H](C)CNc1nccc(-c2[nH]c(C(C)(C)C)nc2-c2cc(Cl)cc(NS(=O)(=O)C3CC3)c2C)n1` [Example 1N, (S)-Methyl 1-(4-(2-tert-butyl-4-(5-chloro-3-(cyclopropanesulfonamido)-2-methylphenyl)-1H-imidazol-5-yl)pyrimidin-2-ylamino)propan-2-ylcarbamate] the figure was 204 nM; with `CC(C)(C)c1nc(-c2cc(F)cc(NS(=O)(=O)c3c(F)cccc3F)c2Cl)c(-c2ccnc(N)n2)[nH]1` [Example 1BP, N-(3-(5-(2-Aminopyrimidin-4-yl)-2-tert-butyl-1H-imidazol-4-yl)-2-chloro-5-fluorophenyl)-2,6-difluorobenzenesulfonamide], 0.26 nM. With `COC(=O)N[C@@H](C)CNc1nccc(-c2[nH]c(C(C)(C)C)nc2-c2cccc(NS(=O)(=O)C(C)C)c2F)n1` [Example 2D], the IC50 is 0.78 nM.

Consider `COC(=O)N[C@@H](C)CNc1nccc(-c2[nH]c(C3CC3)nc2-c2cc(Cl)cc(NS(C)(=O)=O)c2F)n1` [Example 1A, (S)-methyl 1-(4-(4-(5-chloro-2-fluoro-3-(methylsulfonamido)phenyl)-2-cyclopropyl-1H-imidazol-5-yl)pyrimidin-2-ylamino)propan-2-ylcarbamate], for which the IC50 was 0.2 nM. Under `CCCS(=O)(=O)Nc1cccc(-c2nc(C3CC3)[nH]c2-c2ccnc(NC[C@H](C)NC(=O)OC)n2)c1Cl` [Example 4A-3, (S)-methyl 1-(4-(4-(2-chloro-3-(propylsulfonamido)phenyl)-2-cyclopropyl-1H-imidazol-5-yl)pyrimidin-2-ylamino)propan-2-ylcarbamate] stands 0.13 nM; under `CCCS(=O)(=O)Nc1cccc(-c2nc(C(C)(C)C)[nH]c2-c2ccnc(NC[C@H](C)NC(=O)OC)n2)c1F` [Example 4B, (S)-Methyl 1-(4-(2-tert-butyl-4-(2-fluoro-3-(propylsulfonamido)phenyl)-1H-imidazol-5-yl)pyrimidin-2-ylamino)propan-2-ylcarbamate], 0.38 nM; under `COC(=O)N[C@@H](C)CNc1nccc(-c2[nH]c(C3CC3)nc2-c2cc(C)cc(NS(=O)(=O)C(C)C)c2)n1` [Example 4D, (S)-Methyl 1-(4-(2-cyclopropyl-4-(3-methyl-5-(1-methylethylsulfonamido)phenyl)-1H-imidazol-5-yl)pyrimidin-2-ylamino)propan-2-ylcarbamate], 0.96 nM. With `COC(=O)N[C@@H](C)CNc1nccc(-c2nc(C3(C)CC3)[nH]c2-c2cc(C)cc(NS(C)(=O)=O)c2F)n1` [Example 1AM, (S)-Methyl 1-(4-(5-(2-fluoro-5-methyl-3-(methylsulfonamido)phenyl)-2-(1-methylcyclopropyl)-1H-imidazol-4-yl)pyrimidin-2-ylamino)propan-2-ylcarbamate] the figure was 1 nM. In the case of `CNc1nccc(-c2[nH]c(C3CC3)nc2-c2cccc(NS(C)(=O)=O)c2F)n1` [Example 3A-2, N-(3-(2-cyclopropyl-5-(2-(methylamino)pyrimidin-4-yl)-1H-imidazol-4-yl)-2-fluorophenyl)methanesulfonamide], the IC50 worked out at 578 nM. Under `COC(=O)N[C@@H](C)CNc1nccc(-c2[nH]c(C3CC3)nc2-c2cc(C)cc(NS(=O)(=O)CC(F)(F)F)c2F)n1` [Example 1BO, (S)-Methyl 1-(4-(2-cyclopropyl-4-(2-fluoro-5-methyl-3-(2,2,2-trifluoroethylsulfonamido)phenyl)-1H-imidazol-5-yl)pyrimidin-2-ylamino)propan-2-ylcarbamate] stands 0.25 nM.

For `COC(=O)N[C@@H](C)CNc1nccc(-c2[nH]c(C(C)(C)C)nc2-c2cc(NS(=O)(=O)C3CC3)c(C)c(OC)c2)n1` [Example 1L, (S)-Methyl 1-(4-(2-tert-butyl-4-(3-(cyclopropanesulfonamido)-5-methoxy-4-methylphenyl)-1H-imidazol-5-yl)pyrimidin-2-ylamino)propan-2-ylcarbamate], the IC50 was found to be 157 nM.
